Laboratory results: paper PMC7841422, “Predicting Volume of Distribution in Humans: Performance of In Silico Methods for a Large Set of Structurally Diverse Clinical Compounds” (Drug Metabolism and Disposition, 2021)

Assay: Blood-to-plasma partition ratio in human blood
Format: in vitro ADME
Conditions: human whole blood (K2EDTA as anticoagulant), control compounds, 37°C, 60 minutes incubation, LC/MS/MS, read-out: Blood-to-plasma partition ratio (BPR)
Experimental: In vitro measurement of blood-to-plasma partition was conducted in human blood (K2EDTA as anticoagulant) obtained from a commercial source (BioReclamation IVT, Liverpool, NY). Hematocrit (the ratio of volume of red blood cells to total blood) was measured by centrifugation of the whole blood at 3000 rpm for 10 minutes using microhematocrit capillary tubes. Control plasma was prepared from a portion of the whole blood by centrifugation at 3000g for 10 minutes. Both whole blood and control plasma samples were warmed at 37°C in a water bath for 30 minutes. Subsequently, the test compounds (1 µM in the final concentration) and controls [methazolamide (BPR ∼1) and metoprolol (BPR […])] were spiked into blood and incubated at 37°C (5% CO2) with shaking at 200 rpm for 60 minutes along with control samples. After incubation for 60 minutes, the incubated whole blood was removed from the water bath, and the plasma was separated by centrifugation at 1000g for 10 minutes. Aliquots of the control plasma were also removed. […] Test compounds and internal standard response (or peak area) ratio in whole blood and its resulting plasma were measured using liquid chromatography with tandem mass spectrometry (LC/MS/MS). Blood-to-plasma partition was calculated by ratio of mass spectrometric response of compounds in blood samples after 60 minutes of incubation to mass spectrometric response in plasma samples.

blood plasma ratio at 60 min | SMILES
~1 | CC(=O)/N=c1/sc(S(N)(=O)=O)nn1C [methazolamide]
~40 | COCCc1ccc(OCC(O)CNC(C)C)cc1 (centres unmarked) [metoprolol]
